According to patent US8877944B2, “3-oxo-2,3-dihydro-1H-isoindole-4-carboxamides as PARP inhibitors” (Nerviano Medical Sciences S.R.L., priority 2009, dated 2014):
Read-outs that look alike come from different tables or passages of the source.

Assays:
[1] = Pharmacokinetics and oral bioavailability in the mouse; conditions: for AUC / Vd / clearance / half-life: male, Balb Nu/Nu, plasma; for AUC / half-life: po; for AUC / F on AUC / Vd / clearance / half-life: 10 mg/kg; for C-max (oral): 10 mg/kg single oral dose, mean value; for F on AUC: oral vs IV dose-normalized AUC; for Vd / clearance: iv
Description: The compounds were formulated in 10% tween 80/dextrose for intravenous bolus administration while oral administrations were performed using the compounds formulated in 0.5% methylcellulose. A single administration at the dose of 10 mg/kg was given and three male animals for each route were used. […] Plasma samples were prepared by plasma proteins precipitation adding 200 μL of methanol to 10 μL of plasma in a 96 well plate. […] The supernatant was considered as final extract and injected onto the LC-MS-MS system (HPLC system: Hewlett Packard 1100 series using Atlantis HILIC Silica 50*2.1 mm 5.0 μm analytical column; MS instrument: Perkin Elmer SCIEX API 2000 and ionization performed with Turbo Ion Spray in positive ion mode). Lower limit of quantification is 5.0 ng/mL, upper limit of quantification is 10000 ng/mL. […] Non-compartmental method (linear trapezoidal rule and linear regression analysis of natural log-transformed plasma concentrations vs. time data) was used. After intravenous dosing, C0 was set equal to C0.083 Absolute bioavailability (F) was calculated from the ratio of average oral to IV (intravenous) dose-normalized plasma AUC (area under curve) values.

[2] = target: PARP-3 FL (Homo sapiens (Human), UniProt Q9Y6F1); experiment: Fluorescence polarization probe displacement assay, PARP-3; format: binding; conditions: half maximal displacement concentration
Chain of PARP-3 FL (Q9Y6F1 whole entry): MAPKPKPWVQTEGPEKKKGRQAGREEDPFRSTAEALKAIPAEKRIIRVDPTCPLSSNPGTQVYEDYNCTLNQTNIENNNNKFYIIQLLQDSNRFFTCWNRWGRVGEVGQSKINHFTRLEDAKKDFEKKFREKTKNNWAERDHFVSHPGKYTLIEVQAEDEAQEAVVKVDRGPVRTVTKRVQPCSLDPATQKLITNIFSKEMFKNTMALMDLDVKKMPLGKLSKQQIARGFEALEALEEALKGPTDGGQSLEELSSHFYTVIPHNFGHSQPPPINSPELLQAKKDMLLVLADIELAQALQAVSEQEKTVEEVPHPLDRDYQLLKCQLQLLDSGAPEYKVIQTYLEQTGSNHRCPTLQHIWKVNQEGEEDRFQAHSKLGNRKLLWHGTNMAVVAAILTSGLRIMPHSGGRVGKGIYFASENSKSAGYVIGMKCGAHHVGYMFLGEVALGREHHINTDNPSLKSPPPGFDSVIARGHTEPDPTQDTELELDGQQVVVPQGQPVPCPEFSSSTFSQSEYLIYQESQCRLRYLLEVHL
Description: (§1) Affinity evaluation of the tested compounds and their selectivity with respect to the different PARP isoforms of interest was assessed in a displacement assay.
(§2) The polarization signal can be measured, e.g., by a plate reader such as the Saphire2 (Tecan). The displacement ability of the test compound is in correlation with the compound affinity for the NAD pocket of the enzyme.
(§3) The assay performances were then evaluated (Z′ factor) as well as the displacement of the probe by its scaffold and known commercially available PARP inhibitors. In all of the experiments, the polarization signal was measured using a Saphire2 plate reader (Tecan). Data analysis was performed using Dynafit software. In particular, titration data were fitted to the following equilibria: Enzyme+probe <==> Complex Enzyme-probe, while displacement data were fitted to the following equilibria: Enzyme+probe <==> Complex Enzyme-probe, Enzyme+Compound <==> Complex Enzyme-Compound, whereby binding of probe and compound on the enzyme are mutually exclusive (pure competitive mechanism). Displacement data were also fitted using Excell spreadsheet (Microsoft Inc. Seattle, USA) to a four parameter logistic model (4PL), or Hill-Slope model to calculate DC50s where the DC50 value represents the compound concentration at which the polarization signal is diminished by 50% compared to untreated controls.
(§4) KD values, are the average of three independent experiments.

[3] = test system: Capan-1 human pancreatic cancer tumors; experiment: In vivo efficacy, single agent, Capan-1 BRCA-2 mutated mouse model
Description: Fragments of Capan-1 human pancreatic cancer tumors were implanted subcutaneously. Mice bearing a palpable tumor (100-200 mm^3) were selected and randomized into control and treated groups. Each group included seven animals. The treatment started one day after randomization. Compound of formula (I) was administered by oral route as a methocel suspension at the indicated doses and times. Tumor dimension was measured regularly by calipers during the experiments and tumor mass was calculated as described in Simeoni M. et al., Cancer Res 64, 1094-1101 (2004).

[4] = target: PARP-1 FL (Homo sapiens (Human), UniProt P09874); experiment: Fluorescence polarization probe displacement assay, PARP-1; format: binding; conditions: for DC50: half maximal displacement concentration
Chain of PARP-1 FL (P09874 whole entry): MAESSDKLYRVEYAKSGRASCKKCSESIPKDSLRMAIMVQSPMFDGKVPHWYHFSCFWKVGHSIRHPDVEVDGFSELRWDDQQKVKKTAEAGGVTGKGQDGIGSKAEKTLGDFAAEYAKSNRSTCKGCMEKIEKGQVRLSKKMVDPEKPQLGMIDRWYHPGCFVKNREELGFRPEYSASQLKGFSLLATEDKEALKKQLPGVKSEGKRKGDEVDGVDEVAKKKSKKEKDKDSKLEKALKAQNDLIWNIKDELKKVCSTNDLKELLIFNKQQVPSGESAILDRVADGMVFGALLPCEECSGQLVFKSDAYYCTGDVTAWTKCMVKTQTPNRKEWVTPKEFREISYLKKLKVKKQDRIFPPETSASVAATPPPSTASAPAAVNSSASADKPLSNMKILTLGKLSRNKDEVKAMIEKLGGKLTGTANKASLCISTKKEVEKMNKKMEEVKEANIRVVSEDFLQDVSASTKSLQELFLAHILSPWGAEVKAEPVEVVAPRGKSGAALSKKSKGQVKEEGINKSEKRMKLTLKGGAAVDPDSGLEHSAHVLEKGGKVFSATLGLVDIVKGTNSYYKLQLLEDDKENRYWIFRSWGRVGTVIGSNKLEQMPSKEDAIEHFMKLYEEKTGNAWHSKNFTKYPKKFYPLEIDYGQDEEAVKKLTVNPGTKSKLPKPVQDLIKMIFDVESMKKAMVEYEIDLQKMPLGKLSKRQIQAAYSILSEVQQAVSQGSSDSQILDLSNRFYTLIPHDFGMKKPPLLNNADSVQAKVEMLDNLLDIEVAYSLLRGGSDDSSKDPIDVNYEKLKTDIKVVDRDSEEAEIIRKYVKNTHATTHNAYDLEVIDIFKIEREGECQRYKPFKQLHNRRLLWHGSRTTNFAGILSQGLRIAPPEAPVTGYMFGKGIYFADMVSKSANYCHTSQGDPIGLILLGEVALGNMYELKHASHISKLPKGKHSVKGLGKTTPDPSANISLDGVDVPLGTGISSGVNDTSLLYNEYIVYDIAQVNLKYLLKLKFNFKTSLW
Description: as §1, §2, §3, §4

[5] = test system: PAR formation in HeLa cells; experiment: Cellular PAR assay: inhibition of hydrogen peroxide induced PAR formation; conditions: Homo sapiens, read-out: PAR assay IC50
Description: Compounds potencies were evaluated by measuring the inhibition of poly (ADP-ribose) (PAR) chains formation as a marker for PARP-1 inhibition.
Cellular activity of PARP-1 inhibitors was assessed by measuring the inhibition of the hydrogen peroxide induced PAR formation in HeLa cells (ECACC). Cellular PAR levels were measured by immunocytochemistry, and quantified using an ArrayScan vTi instrument (Cellomics Thermo Scientific).
Test compounds were then added at the required concentration for 30′. […] Concentration curves were prepared in MEM/10% FCS from compound stocks in DMSO, and final DMSO concentration was 0.002% (v/v). Duplicate wells for each concentration point were prepared with a typical highest compound concentration of 20 μM and serial dilution 1:3. […] Non-specific binding sites were blocked by incubating wells for 30 min in PBS containing 5% (w/v) FBS 0.05% tween20. […] After washing further 3 times in PBS, cellular PAR immunoreactivity was assessed using the ArrayScan vTi instrument, with a Zeiss 10×0.5 N.A. objective, and applying the Cytotoxicity.V3 algorithm (Cellomics/Thermo Fisher) with a XF100 filter. At least 10 fields, corresponding to at least 900 cells, were read for each well.
The following formula is used: IC50=Bottom+(Top-Bottom)/(1+10^((LogEC50−X))); X is the logarithm of concentration. IC50 is the response; IC50 starts at Bottom and goes to Top with a sigmoid shape.

[6] = target: PARP-2 FL (Homo sapiens (Human), UniProt Q9UGN5); experiment: Fluorescence polarization probe displacement assay, PARP-2; format: binding
Chain of PARP-2 FL (Q9UGN5 whole entry): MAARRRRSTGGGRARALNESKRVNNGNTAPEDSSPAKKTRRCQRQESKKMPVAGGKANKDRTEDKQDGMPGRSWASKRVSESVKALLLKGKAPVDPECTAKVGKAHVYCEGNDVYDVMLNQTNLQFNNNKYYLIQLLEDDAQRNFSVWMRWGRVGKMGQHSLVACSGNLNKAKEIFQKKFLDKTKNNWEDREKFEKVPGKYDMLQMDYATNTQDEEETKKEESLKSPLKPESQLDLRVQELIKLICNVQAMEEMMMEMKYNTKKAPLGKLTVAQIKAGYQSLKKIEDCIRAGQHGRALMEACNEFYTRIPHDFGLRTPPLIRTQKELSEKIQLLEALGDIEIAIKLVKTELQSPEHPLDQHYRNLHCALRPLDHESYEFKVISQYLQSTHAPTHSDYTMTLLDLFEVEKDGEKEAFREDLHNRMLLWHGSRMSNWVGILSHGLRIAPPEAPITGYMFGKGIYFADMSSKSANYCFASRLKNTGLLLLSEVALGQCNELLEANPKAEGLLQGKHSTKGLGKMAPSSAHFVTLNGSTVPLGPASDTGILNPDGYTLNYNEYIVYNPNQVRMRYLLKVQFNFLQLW
Description: as §1, §2, §3, §4

[7] = test system: ovarian cancer with confirmed BRCA-1 mutations; conditions: ovarian cancer patients with confirmed BRCA-1 mutations, monotherapy; cited from earlier work
[8] = 100 mg/kg oral, days 1-15 daily
[9] = compound P1 as the probe, 250 nM PARP-1
[10] = read-out: PARP-2 DC50; half maximal displacement concentration
[11] = 100 mg/kg oral, days 1-14 daily
[12] = compound P3 as the probe, 100 nM PARP-1
[13] = half maximal displacement concentration; read-out: PARP-2 DC50
[14] = 100 mg/kg oral, days 1-6 twice a day

## NC(=O)c1cc(F)cc2c1C(=O)N(C1CCN(C3CCC(F)(F)CC3)CC1)C2 [Compound 99, 2-[1-(4,4-Difluorocyclohexyl)-piperidin-4-yl]-6-fluoro-3-oxo-2,3-dihydro-1H-isoindole-4-carboxamide]
[1]
  AUC: 19.6 µM·h
[2]
  DC50: 1580 nM
[3]; [8]
  Max TGI (%): 55%
  Toxicity (body weight reduction, mice out of 7): 0/7

## NC(=O)c1cccc2c1C(=O)N(C1CCN(C3CCC4(CC3)OCCO4)CC1)C2 [Compound 8, 2-[1-(1,4-Dioxaspiro[4.5]dec-8-yl)piperidin-4-yl]-3-oxo-2,3-dihydro-1H-isoindole-4-carboxamide]
[4]; [9]
  Kd: 130 nM
[4]
  DC50: 280 nM
[2]
  DC50: > 10000 nM
[5]
  IC50: 530 nM
[6]; [10]
  DC50: > 10000 nM

## NC(=O)c1cccc2c1C(=O)N(C1CCN(Cc3ccc4[nH]ccc4c3)CC1)C2 [Compound 29, 2-[1-(1H-indol-5-ylmethyl)piperidin-4-yl]-3-oxo-2,3-dihydro-1H-isoindole-4-carboxamide]
[3]; [11]
  Max TGI (%): 38%
  Toxicity (body weight reduction, mice out of 7): 0/7

## NC(=O)c1cccc2c1C(=O)N(C1CCN([C@H]3CC[C@@H](CO)CC3)CC1)C2 [Compound 3, 2-{1-[Cis-4-(hydroxymethyl)cyclohexyl]piperidin-4-yl}-3-oxo-2,3-dihydro-1H-isoindole-4-carboxamide]
[4]; [12]
  Kd: 13 nM
[4]
  DC50: < 250 nM
[1]
  C-max (oral): 1.17 µM
  F on AUC: 82.5%
  Vd: 4.75 L/kg
  clearance: 104 mL/min/kg
  AUC: 2.39 µM·h
  half-life: 1.75 h
[2]
  DC50: 2300 nM
[5]
  IC50: 140 nM
[6]; [13]
  DC50: > 10000 nM

## CO[C@H]1CC[C@@H](N2CCC(N3Cc4cccc(C(N)=O)c4C3=O)CC2)CC1 [Compound 1, 2-[1-(Cis-4-methoxycyclohexyl)piperidin-4-yl]-3-oxo-2,3-dihydro-1H-isoindole-4-carboxamide]
[4]; [12]
  Kd: 60 nM
[4]
  DC50: < 250 nM
[2]
  DC50: 3700 nM
[5]
  IC50: 390 nM
[6]; [10]
  DC50: > 10000 nM

## O=C(c1cc(Cc2n[nH]c(=O)c3ccccc23)ccc1F)N1CCN(C(=O)C2CC2)CC1 [AZD2281]
[7]
  partial responses: 4 out of 10

## CO[C@H]1CC[C@H](N2CCC(N3Cc4cccc(C(N)=O)c4C3=O)CC2)CC1 [Compound 2, 2-[1-(Trans-4-methoxycyclohexyl)piperidin-4-yl]-3-oxo-2,3-dihydro-1H-isoindole-4-carboxamide]
[4]; [12]
  Kd: 25 nM
[4]
  DC50: < 250 nM
[2]
  DC50: 6000 nM
[5]
  IC50: 160 nM
[6]; [10]
  DC50: > 10000 nM

## NC(=O)c1cccc2c1C(=O)N(C1CCN([C@H]3CC[C@H](CO)CC3)CC1)C2 [Compound 4, 2-{1-[Trans-4-(hydroxymethyl)cyclohexyl]piperidin-4-yl}-3-oxo-2,3-dihydro-1H-isoindole-4-carboxamide]
[4]; [12]
  Kd: 20 nM
[4]
  DC50: < 250 nM
[1]
  C-max (oral): 0.4 µM
  F on AUC: 55%
  Vd: 5.95 L/kg
  clearance: 135 mL/min/kg
  AUC: 1.3 µM·h
  half-life: 1.42 h
[2]
  DC50: 4900 nM
[5]
  IC50: 90 nM
[6]; [13]
  DC50: > 10000 nM

## NC(=O)c1cccc2c1C(=O)N(C1CCN(C3CCC(F)(F)CC3)CC1)C2 [Compound 7, 2-[1-(4,4-Difluorocyclohexyl)-piperidin-4-yl]-3-oxo-2,3-dihydro-1H-isoindole-4-carboxylic acid amide]
[2]
  DC50: 3540 nM
[3]; 80 mg/kg oral, days 1-8 daily
  Max TGI (%): 47%
  Toxicity (body weight reduction, mice out of 7): 0/7

## COCCN1CCC(N2Cc3cccc(C(N)=O)c3C2=O)CC1 [Compound 106, 2-[1-(2-Methoxyethyl)piperidin-4-yl]-3-oxo-2,3-dihydro-1H-isoindole-4-carboxamide]
[4]; [9]
  Kd: 110 nM
[4]
  DC50: 280 nM
[2]
  DC50: 2550 nM
[5]
  IC50: 410 nM
[6]; [10]
  DC50: > 10000 nM

## CC(C)n1cc(CN2CCC(N3Cc4cccc(C(N)=O)c4C3=O)CC2)c2ccccc21 [Compound 32, 3-oxo-2-(1-{[1-(propan-2-yl)-1H-indol-3-yl]methyl}piperidin-4-yl)-2,3-dihydro-1H-isoindole-4-carboxamide]
[4]; [12]
  Kd: 40 nM
[4]
  DC50: < 250 nM
[1]
  C-max (oral): 0.43 µM
  F on AUC: 24%
  Vd: 2.78 L/kg
  clearance: 59.5 mL/min/kg
  AUC: 1.48 µM·h
  half-life: 1.84 h
[2]
  DC50: 270 nM
[5]
  IC50: 380 nM
[6]; [13]
  DC50: > 10000 nM
[3]; [14]
  Max TGI (%): 32%
  Toxicity (body weight reduction, mice out of 7): 0/7
